Read-outs that look alike come from different tables or passages of the source.

Consider 14 compounds from patent US8536202B2, “Triazole-substituted anthranilamides as pesticides” (Bayer Cropscience AG, priority 2010, dated 2013).

Data set [1] deals with green peach aphid (Myzus persicae). Nature of the data set: Myzus test (MYZUPE spray treatment), Use Example 4. To be noted: 144 h, 100 g/ha, after 6 days, read-out: activity in %. Format: in vivo. On the procedure: Solvents: 78 parts by weight of acetone • • 1.5 parts by weight of dimethylformamide
Emulsifier: 0.5 part by weight of alkylaryl polyglycol ether
An appropriate preparation of active compound is prepared by mixing 1 part by weight of active compound with the stated amounts of solvents and emulsifier and diluting the concentrate with emulsifier-containing water to the desired concentration.
Leaf discs of Chinese cabbage (Brassica pekinensis) infested by all stages of the green peach aphid (Myzus persicae) are sprayed with a preparation of active compound at the desired concentration.
After 6 days, the activity in % is ascertained. Here, 100% means that all of the aphids have been killed; 0% means that no aphids have been killed.

Data set [2] has as its system larvae of the mustard beetle (Phaedon cochleariae). Nature of the data set: Phaedon test (PHAECO spray treatment). The note with it: 168 h, read-out: activity in %. Format: in vivo. The procedure, abridged: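 Mortality of mustard beetle larvae, expressed as percent killed (100% all, 0% none), assessed 7 days after spraying. Spray liquor made from compound in acetone plus dimethylformamide with alkylaryl polyglycol ether, diluted in emulsifier-containing water to the desired concentration.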

Data set [3] in a line: log P determination by HPLC on reversed-phase columns (EEC Directive 79/831 Annex V.A8). Format: physicochemical. The note with it: pH 2.7. The essentials: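 Calibration used unbranched alkan-2-ones of 3 to 16 carbons with known log P, values interpolated linearly from retention times between neighbouring standards. Acidic-range LC-MS run at pH 2.7, eluents aqueous and acetonitrile formic acid 0.1%, linear gradient 10% to 95% acetonitrile.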

Data set [4] deals with caterpillars of the armyworm (Spodoptera frugiperda). Nature of the data set: Spodoptera frugiperda test (SPODFR spray treatment). It counts as in vivo. To be noted: 168 h, read-out: activity in %. The procedure, abridged:
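Percent caterpillar mortality read 7 days after infestation (0% none killed, 100% all killed). Treatment was a spray of the acetone/DMF/emulsifier formulation, water-diluted to test concentration, onto Zea mays leaf discs, allowed to dry before larvae were added.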

The mark [5] stands for this setting: HPLC on reversed-phase columns (C 18), EEC Directive 79/831 Annex V.A8, read-out: logP.

For the compound `CSC[C@H](C)NC(=O)c1cc(I)cc(C)c1NC(=O)c1cc(Cn2ncc(C(F)(F)C(F)(F)F)n2)nn1-c1ncccc1Cl` [Example 344], the pest or weed control at 100 g/ha turned out to be 100% in data set [1]; 100% in data set [2] (100 g/ha, after 7 days); 100% in data set [4] (100 g/ha, after 7 days). The same compound displayed a chromatographic logP in data set [3] of 4.34.

For the compound `CCNC(=O)c1cc(C#N)cc(C)c1NC(=O)c1cc(Cn2ncc(C(F)(F)F)n2)nn1-c1ncccc1Cl` [Example 127], the pest or weed control at 100 g/ha in data set [1] turned out to be 90%; in data set [2] (100 g/ha, after 7 days) it was 100%; in data set [4] (100 g/ha, after 7 days), 100%. The same compound yielded a chromatographic logP in data set [3] of 2.88.

`Cc1cc(C#N)cc(C(=O)NC(C)C)c1NC(=O)c1cc(Cn2cc(C(F)(F)F)nn2)nn1-c1ncccc1Cl` [Example 181]: the pest or weed control at 100 g/ha in data set [1] was 90%; in data set [4] (100 g/ha, after 7 days), 100%. This compound registered a chromatographic logP in data set [3] of 2.67.

For `Cc1cc(I)cc(C(=O)NC(C)C2CC2)c1NC(=O)c1cc(Cn2ncc(C(F)(F)C(F)(F)C(F)(F)F)n2)nn1-c1ncccc1Cl` (centres unmarked) [Example 386], the pest or weed control at 100 g/ha in data set [2] and in data set [4] was 100% throughout. Besides, the chromatographic logP in data set [3] (setting [5]) is 4.82.

On to `Cc1cc(I)cc(C(=O)NC(C)C)c1NC(=O)c1cc(Cn2ncc(C(F)(F)C(F)(F)C(F)(F)F)n2)nn1-c1ncccc1Cl` [Example 371], for which the pest or weed control at 100 g/ha in data set [2] and in data set [4] was 100% each time. In addition, the chromatographic logP in data set [3] (setting [5]) was 4.46.

As for `Cc1cc(I)cc(C(=O)NC2CC2)c1NC(=O)c1cc(Cn2ncc(C(F)(F)F)n2)nn1-c1ncccc1Cl` [Example 159], the pest or weed control at 100 g/ha in data set [2] (100 g/ha, after 7 days) came to 100%; in data set [4] (100 g/ha, after 7 days) it was 100%. Moreover, the chromatographic logP in data set [3] turned out to be 3.45.

Take `CCNC(=O)c1cc(I)cc(C)c1NC(=O)c1cc(Cn2cc(C(F)(F)C(F)(F)C(F)(F)F)nn2)nn1-c1ncccc1Cl` [Example 335]: the pest or weed control at 100 g/ha in data set [2] and in data set [4] was 100% in each case. In data set [3] (setting [5]), the chromatographic logP turned out to be 3.83.

Regarding `CNC(=O)c1cc(Cl)cc(C)c1NC(=O)c1cc(Cn2nc3ccc(C(F)(F)F)cc3n2)nn1-c1ncccc1Cl` [Example 74], the pest or weed control at 100 g/ha in data set [2] (100 g/ha, after 7 days) was 100%; in data set [4] (100 g/ha, after 7 days), 100%. This compound gave a chromatographic logP in data set [3] of 3.48.

As to `O=C(NC1CC1)c1cc(Cl)cc(Cl)c1NC(=O)c1cc(Cn2ncc(C(F)(C(F)(F)F)C(F)(F)F)n2)nn1-c1ncccc1Cl` [Example 280], the pest or weed control at 100 g/ha in data set [2] (100 g/ha, after 7 days) was found to be 100%; in data set [4] (100 g/ha, after 7 days), 100%. In data set [3], the chromatographic logP was determined as 3.92.

With `Cc1cc(I)cc(C(=O)NC2CC2)c1NC(=O)c1cc(Cn2nc(C(F)(F)F)c(C(F)(F)F)n2)nn1-c1ncccc1Cl` [Example 390], the pest or weed control at 100 g/ha in data set [2] (100 g/ha, after 7 days) came out at 100%; in data set [4] (100 g/ha, after 7 days), 100%. The compound further registered a chromatographic logP in data set [3] of 4.19.

With `O=C(NC1CC1)c1cc(Cl)cc(Cl)c1NC(=O)c1cc(Cn2ncc(C(F)(F)F)n2)nn1-c1ncccc1Cl` [Example 148], the pest or weed control at 100 g/ha is 100% in data set [2] (100 g/ha, after 7 days) and 100% in data set [4] (100 g/ha, after 7 days). This compound showed a chromatographic logP in data set [3] of 3.18.

Turning to `Cc1cc(I)cc(C(=O)NC(C)C2CC2)c1NC(=O)c1cc(Cn2ncc(C(F)(C(F)(F)F)C(F)(F)F)n2)nn1-c1ncccc1Cl` (centres unmarked) [Example 266], the pest or weed control at 100 g/ha came to 100% in data set [2] (100 g/ha, after 7 days) and 100% in data set [4] (100 g/ha, after 7 days). Also, the chromatographic logP in data set [3] (reversed-phase C18 HPLC column, HPLC on reversed-phase columns (C 18), EEC Directive 79/831 Annex V.A8, read-out: logP) came out at 4.86.

Take `CNC(=O)c1cc(I)cc(C)c1NC(=O)c1cc(Cn2cc(C(F)(F)F)nn2)nn1-c1ncccc1Cl` [Example 206]: the pest or weed control at 100 g/ha in data set [2] (100 g/ha, after 7 days) came to 100%; in data set [4] (100 g/ha, after 7 days), 100%. The compound also gave a chromatographic logP in data set [3] of 2.86.

With `CNC(=O)c1cc(Cl)cc(C)c1NC(=O)c1cc(Cn2nc(C(F)(F)F)c(C(F)(F)F)n2)nn1-c1ncccc1Cl` [Example 411], the pest or weed control at 100 g/ha in data set [2] (100 g/ha, after 7 days) amounted to 100%; in data set [4] (100 g/ha, after 7 days), 100%. The compound also yielded a chromatographic logP in data set [3] of 3.78.
